Series [1] can be described thus: MTS staining for PBMC viability to measure cytotoxicity. The class given is cell-based, human. The note with it: human, PBMCs. From the text: (§1) Pooling (mixing) of mononuclear cells from more than one donor is used to minimize the variability observed between individual donors, which results from quantitative and qualitative differences in HIV infection and overall response to the PHA and IL-2 of primary lymphocyte populations. Each plate contains virus/cell control wells (cells plus virus), experimental wells (drug plus cells plus virus) and compound control wells (drug plus media without cells, necessary for MTS monitoring of cytotoxicity). […] Therefore, infected wells are used in the assessment of both antiviral activity and cytotoxicity. […] The PBMC cultures are maintained for seven days following infection at 37° C., 5% CO2. After this period, cell-free supernatant samples are collected for analysis of reverse transcriptase activity and/or p24 antigen content. Following removal of supernatant samples, compound cytotoxicity is measured by addition of MTS to the plates for determination of cell viability. Wells are also examined microscopically and any abnormalities are noted. MTS Staining for PBMC Viability to Measure Cytotoxicity Protocol: At assay termination, assay plates are stained with the soluble tetrazolium-based dye MTS (CellTiter 96 Reagent, Promega) to determine cell viability and quantify compound toxicity. The mitochondrial enzymes of metabolically active cells metabolize MTS to yield a soluble formazan product. This allows the rapid quantitative analysis of cell viability and compound cytotoxicity. […] At termination of the assay, 20 uL of MTS reagent is added per well. The microtiter plates are then incubated 4-6 hrs at 37° C. The incubation intervals were chosen based on empirically determined times for optimal dye reduction. Adhesive plate sealers are used in place of the lids, the sealed plate is inverted several times to mix the soluble formazan product and the plate is read spectrophotometrically at 490/650 nm with a Molecular Devices Vmax or SpectraMaxPlus plate reader.

The subject of a further series is PBMCs. The series is described as above. It counts as cell-based, human.
Source text: as §1

Series [2] in a line: Cell viability (CellTiter 96 AQueous One) in HepG2 2.2.15. It counts as cell-based. The note with it: human, HepG2-2.2.15 cells, read-out: Cytotoxicity TC50. The method, then:
The anti-HBV assay employed real-time qPCR (TaqMan) to directly measure extracellular HBV DNA copy number. HepG2-2.2.15 cells were plated in 96-well microtiter plates. Only the interior wells were utilized to reduce “edge effects” observed during cell culture; the exterior wells were filled with complete medium to help minimize sample evaporation. After 16-24 hours the confluent monolayer of HepG2-2.2.15 cells was washed and the medium replaced with complete medium containing various concentrations of a test compound in triplicate. 3TC was used as positive control, while media alone was added to cells as negative control (virus control, VC). Three days later the culture medium was replaced with fresh medium containing the appropriately diluted drug. Six days following the initial administration of the test compound, the cell culture supernatant collected, treated with pronase and then used in a real-time quantitative TaqMan qPCR assay. The PCR-amplified HBV DNA was detected in real-time by monitoring increases in fluorescence signals that result from the exonucleolytic degradation of a quenched fluorescent probe molecule that hybridizes to the amplified HBV DNA. […] Antiviral activity was calculated from the reduction in HBV DNA levels (IC50). […] The therapeutic index (TI) was calculated as TC50/IC50.

For series [3], the system named is VSVg-pseudotyped NL4-3.Luc.E-R- virus. Nature of the series: microbe, parasite or virus in culture. The class given is cell-based, HIV-1. The note with it: Human immunodeficiency virus 1, NL43, SUP-T1, read-out: EC50 of inhibition of HIV replication.
Another series deals with JLAT clones (A2; 9.2). Nature of the series: HIV-1 reactivation and inhibition of reactivation in JLAT clones (GFP, flow cytometry). It counts as cell-based, human. The method, then: Two JLAT clones (A2; 9.2) were incubated for 24 hours with tumor necrosis factor alpha (TNFα), phorbol myristate 13-acetate (PMA), Compound 9 (9, various doses), and all combinations of these three compounds. JLAT cells make GFP when HIV is reactivated from latency.
J-Lat cells (JLAT 9.2, 5×10^5/mL) were cultured in Gibco RPMI-1640 media, supplemented with 10% (vol/vol) FCS and 5% (vol/vol) penicillin streptomycin at 37° C., 5% CO2 under sterile conditions. For HIV-1 reactivation experiments, 10^6 cells/mL were mixed with TPA (10 nM final, unless otherwise indicated) or TNFα (5 ng/mL final) and immediately 150 μL of cell mix was dispensed into 96-well plates. Compound 9 was added to the 96-well plates in serial dilutions. Cells were incubated for 24 h before analysis by flow cytometry.
JLAT (A2) cells were incubated with the following treatments: media (negative control), DMSO (SNX control), 1 ng/mL TNFα, 2 μM PMA, or these agonists+1, 0.1, 0.01, or 0.001 Compound 9 (left to right in the attached figure). 20 h post incubation, the cells were washed, fixed, and run on a flow cytometer. Media, DMSO, TNFα, and PMA were each run in quadruplicate; all other reactions were run in singlet. >10,000 events (cells) were counted for each treatment. Data are expressed as % GFP+cells (negative cells set by gating on media alone control).
(A flow cytometer gives signals particle by particle.)

Series [4] has as its system Rev-dependent VLP production. Nature of the series: Virus like particles (VLP) production in 293T cells, Gag(p24) ELISA. The class given is cell-based. The note with it: 293T cells, 1, 0.1 and 0.01. An excerpt: 293T Cells were transfected with a gag-pol-RRE construct. When Rev is present and/or functioning, Gag is produced, forms virus like particles (VLP), and VLP are secreted into the culture supernatant. VLP in the media are quantified using a quantitative Gag(p24) ELISA.
For orientation: In an ELISA, binding on a coated surface is turned into a signal by an enzyme label.

Series [5] concerns single cycle HIV in SupT1 cells.
Experimental: HIV-integration was evaluated in a cell based assay with ALU-PCR read out. Using single cycle virus (Env-deficient, containing Luc, pseudotyped with VSV-g), SupT1 cells were infected for 36 hours. Cells were treated with DMSO, Raltegravir (integrase inhibitor), 500 nM Compound 9, or Nelfinavir (protease inhibitor). It was expected that Raltegravir should affect both Luc and ALU-PCR data and Nelfinavir should not (downstream of both). Cells were split in half-one part for Luc-assays, and one part for ALU-PCR.

A value given as a limit tells only on which side of the number the result lay.

The EC50 is the concentration at which the effect is half-maximal.

`CC1(C)CC(=O)c2c(C(F)(F)F)nn(-c3ccc(C(N)=O)c(N[C@H]4CC[C@H](O)CC4)c3)c2C1` [Compound 9, 4-(6,6-Dimethyl-4-oxo-3-trifluoromethyl-4,5,6,7-tetrahydro-indazol-1-yl)-2-(trans-4-hydroxy-cyclohexylamino)-benzamide] yielded a CC50 at 7 days in series [1] of 30 nM. Besides, in the series with PBMCs, the “TC 90% (90% cytotoxicity)” value is reported as above 2000 nM and the “TC 95% (95% cytotoxicity)” value is reported as above 2000 nM. The CC50 at 6 days in series [2] is 73 nM. The EC50 in series [3] was found to be 10 nM. Further, the “Increase in GFP positive cells (HIV reactivation)” value with JLAT clones (A2; 9.2) (JLAT (A2) model) is recorded as “about 2 fold”. Also, in the series on JLAT clones (A2; 9.2) (JLAT A2 and JLAT 9.2 cells), the “Inhibition of TNFα or PMA (phorbol ester) induced HIV-1 reactivation” value was “does not inhibit”. For the same compound, the “Inhibition of Rev-dependent VLP production” value in series [4] is given as “does not appear to robustly inhibit”. Besides, the “Integration of HIV-1 viral DNA into host cell” value in series [5] was “inhibit”. Besides, in series [5] (500 nM, SupT1 cells infected 36 hours), the “Reduction of single cycle HIV” value is “at least 90%”.

These data come from patent US20160143884A1, “USE OF TETRAHYDROINDAZOLYLBENZAMIDE AND TETRAHYDROINDOLYLBENZAMIDE DERIVATIVES FOR THE TREATMENT OF HUMAN IMMUNODEFICIENCY VIRUS (HIV) AND ACQUIRED IMMUNE DEFICIENCY SYNDROME (AIDS)” (Esanex, Inc., priority 2014, published 2016).
